Target: T1, HCMV polymerase (Human cytomegalovirus, UniProt P08546)
T1 construct: made in house; host or cells: SF-9 insect cells infected with recombinant baculovirus
Test: HCMV polymerase assay (scintillation proximity assay)
Format: biochemical
Settings: percentage of inhibition at 25 μM concentration in CMV polymerase assay
Description: The compounds of the present invention are tested in an polymerase assay to show activity described below, which is indicative of a compound's activity and thus of its use as an anti-viral agent.
The HCMV polymerase assay is performed using a scintillation proximity assay (SPA) as described in several references, such as N. D. Cook, et al., Pharmaceutical Manufacturing International, pages 49-53 (1992); K. Takeuchi, Laboratory Practice, September issue (1992); U.S. Pat. No. 4,568,649 (1986); which are incorporated by reference herein. Reactions are performed in 96-well plates. The assay is conducted in 100 μl volume with 5.4 mM HEPES (pH 7.5), 11.7 mM KCl, 4.5 mM MgCl2, 0.36 mg/ml BSA, and 90 nM ^3 H-dTTP. Assays are run with and without CHAPS, (3-[(3-Cholamidopropyl)-dimethylammonio]-1-propanesulfonate) at a final concentration of 2 mM. HCMV is diluted in enzyme dilution buffer containing 50% glycerol, 250 mM NaCl, 10 mM HEPES (pH 7.5), 100 μg/ml BSA, and 0.01% sodium azide. The HCMV polymerase, which is expressed in recombinant baculovirus-infected SF-9 cells and purified according to literature procedures, is added at 10% (or 10 μl) of the final reaction volume, i.e., 100 μl. Compounds are diluted in 50% DMSO and 10 μl are added to each well. Control wells contain an equivalent concentration of DMSO. Unless noted otherwise, reactions are initiated via the addition of 6 nM biotinylated poly(dA)-oligo(dT) template/primer to reaction mixtures containing the enzyme, substrate, and compounds of interest. Plates are incubated in a 25° C. or 37° C. H2 O bath and terminated via the addition of 40 μl/reaction of 0.5 M EDTA (pH 8) per well. Reactions are terminated within the time-frame during which substrate incorporation is linear and varied depending upon the enzyme and conditions used, i.e., 30 min. for HCMV polymerase. Ten μl of streptavidin-SPA beads (20 mg/ml in PBS/10% glycerol) are added following termination of the reaction. Plates are incubated 10 min. at 37° C., then equilibrated to room temperature, and counted on a Packard Topcount.
In TABLE 1, "MS" refers to mass spectral data, "% inhib" refers to percentage of inhibition at 25 μM concentration in CMV polymerase assay.

T1 sequence (P08546 whole entry): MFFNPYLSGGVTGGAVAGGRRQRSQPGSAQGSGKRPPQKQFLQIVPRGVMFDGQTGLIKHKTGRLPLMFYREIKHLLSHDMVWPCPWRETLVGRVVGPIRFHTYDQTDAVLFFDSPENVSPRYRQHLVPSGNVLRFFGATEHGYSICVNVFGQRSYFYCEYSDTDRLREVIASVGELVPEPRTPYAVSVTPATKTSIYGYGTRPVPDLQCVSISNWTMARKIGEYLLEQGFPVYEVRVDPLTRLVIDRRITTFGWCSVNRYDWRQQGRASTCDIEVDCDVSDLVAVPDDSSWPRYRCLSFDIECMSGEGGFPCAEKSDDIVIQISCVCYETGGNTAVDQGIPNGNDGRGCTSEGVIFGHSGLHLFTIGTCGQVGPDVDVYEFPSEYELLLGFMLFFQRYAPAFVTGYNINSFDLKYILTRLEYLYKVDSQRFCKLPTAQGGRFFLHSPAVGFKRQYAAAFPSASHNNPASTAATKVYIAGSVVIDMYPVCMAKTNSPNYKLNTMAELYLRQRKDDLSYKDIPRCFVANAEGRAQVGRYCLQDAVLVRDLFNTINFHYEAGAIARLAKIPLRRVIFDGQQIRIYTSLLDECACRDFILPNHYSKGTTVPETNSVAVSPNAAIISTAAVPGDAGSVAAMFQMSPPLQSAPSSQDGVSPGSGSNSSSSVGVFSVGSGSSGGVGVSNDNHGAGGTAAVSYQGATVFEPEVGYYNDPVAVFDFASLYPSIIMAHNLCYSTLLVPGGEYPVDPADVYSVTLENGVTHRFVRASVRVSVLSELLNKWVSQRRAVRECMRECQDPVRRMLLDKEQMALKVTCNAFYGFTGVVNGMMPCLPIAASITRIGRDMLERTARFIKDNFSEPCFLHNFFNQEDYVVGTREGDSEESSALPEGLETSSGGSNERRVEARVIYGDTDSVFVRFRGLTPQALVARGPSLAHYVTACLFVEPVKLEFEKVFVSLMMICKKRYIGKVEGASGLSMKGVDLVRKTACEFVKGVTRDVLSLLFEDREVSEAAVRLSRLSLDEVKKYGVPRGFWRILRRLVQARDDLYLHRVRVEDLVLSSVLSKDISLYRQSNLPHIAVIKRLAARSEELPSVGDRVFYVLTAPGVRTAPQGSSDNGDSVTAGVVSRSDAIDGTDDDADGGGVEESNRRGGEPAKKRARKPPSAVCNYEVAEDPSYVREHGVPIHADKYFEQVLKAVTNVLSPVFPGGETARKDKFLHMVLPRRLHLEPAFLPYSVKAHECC

Row | SMILES | inhibition at 25 µM | % Inhib
1 | COc1ccc(CNc2nnc(NC(=O)c3ccc4c(c3)C(=O)OC4=O)s2)cc1OC [compound 16, N-{5-[(3,4-dimethoxybenzyl)amino]-1,3,4-thiadiazol-2-yl}-1,3-dioxo-1,3-dihydro-2-benzofuran-5-carboxamide] | 98.7% | 
2 | COc1ccc(CNc2nnc(NC(=O)c3ccc(C#N)cc3)s2)cc1OC [compound 244, 4-cyano-N-{5-[(3,4-dimethoxybenzyl)amino]-1,3,4-thiadiazol-2-yl}benzamide] | 41% | 
3 | CC(C)(C)CNc1nnc(NC(=O)c2c(Cl)cccc2Cl)s1 [compound 392, 2,6-dichloro-N-[5-(neopentylamino)-1,3,4-thiadiazol-2-yl]benzamide] | 26.2% | 
4 | O=C(/C=C/c1ccccc1)Nc1nnc(NCCSc2ccccc2)s1 [compound 114, (E)-3-phenyl-N-(5-{[2-(phenylsulfanyl)ethyl]amino}-1,3,4-thiadiazol-2-yl)-2-propenamide] | 62.1% | 
5 | O=C(Nc1nnc(NC2CCCCCC2)s1)c1ccc2c(c1)C(=O)OC2=O [compound 29, N-[5-(cycloheptylamino)-1,3,4-thiadiazol-2-yl]-1,3-dioxo-1,3-dihydro-2-benzofuran-5-carboxamide] | 92.4% | 
6 | O=C(Nc1nnc(NCC2CCCCC2)s1)c1ccc(F)cc1F [compound 433, N-{5-[(cyclohexylmethyl)amino]-1,3,4-thiadiazol-2-yl}-2,4-difluorobenzamide] | 22.9% | 
7 | COc1ccccc1C(=O)Nc1nnc(NCc2ccc(F)cc2)s1 [compound 348, N-{5-[(4-fluorobenzyl)amino]-1,3,4-thiadiazol-2-yl}-2-methoxybenzamide] | 30.4% | 
8 | O=C(Nc1nnc(NC2CCN(Cc3ccccc3)CC2)s1)c1c(Cl)cccc1Cl [compound 151, N-{5-[(1-benzyl-4-piperidinyl)amino]-1,3,4-thiadiazol-2-yl}-2,6-dichlorobenzamide] | 54% | 
9 | O=C(Nc1nnc(NC2CCCCCC2)s1)c1ccc(S(=O)(=O)F)cc1 [compound 278, 4-({[5-(cycloheptylamino)-1,3,4-thiadiazol-2-yl]amino}carbonyl)benzenesulfonyl fluoride] |  | 37.5%
10 | CCSCCNc1nnc(NC(=O)c2ccc(C(F)(F)F)cc2)s1 [compound 406, N-(5-{[2-(ethylsulfanyl)ethyl]amino}-1,3,4-thiadiazol-2-yl)-4-(trifluoromethyl)benzamide] | 25% | 
11 | CC1(C)C2CC[C@@H](CNc3nnc(NC(=O)c4ccc5c(c4)C(=O)OC5=O)s3)C1C2 (stereo partly drawn) [compound 25, N-[5-({[(2R)-6,6-dimethylbicyclo[3.1.1]hept-2-yl]methyl}amino)-1,3,4-thiadiazol-2-yl]-1,3-dioxo-1,3-dihydro-2-benzofuran-5-carboxamide] | 93.9% | 
12 | O=C(Nc1nnc(NCC2CCCCC2)s1)c1ccc([N+](=O)[O-])o1 [compound 380, N-{5-[(cyclohexylmethyl)amino]-1,3,4-thiadiazol-2-yl}-5-nitro-2-furamide] | 27.5% | 
13 | N#Cc1ccc(C(=O)Nc2nnc(NCc3ccc(Cl)c(Cl)c3)s2)cc1 [compound 140, 4-cyano-N-{5-[(3,4-dichlorobenzyl)amino]-1,3,4-thiadiazol-2-yl}benzamide] | 56.2% | 
14 | CC(C)c1cc(C(C)C)c(C(=O)Nc2nnc(NCCC(=O)OC(C)(C)C)s2)c(C(C)C)c1 [compound 388, tert-butyl 3-({5-[(2,4,6-triisopropylbenzoyl)amino]-1,3,4-thiadiazol-2-yl}amino)propanoate] | 26.6% | 
15 | O=C(Nc1nnc(NCCNc2ccccc2)s1)c1ccc(Br)cc1 [compound 434, N-{5-[(2-anilioethyl)amino]-1,3,4-thiadiazol-2-yl}-4-bromobenzamide] | 22.8% | 
16 | O=C(Nc1nnc(NCc2ccc3c(c2)OCO3)s1)c1ccc(I)cc1 [compound 459, N-{5-[(1,3-benzodioxol-5-ylmethyl)amino]-1,3,4-thiadiazol-2-yl}-4-iodobenzamide] | 20.7% | 
17 | O=C(Nc1nnc(NCc2ccncc2)s1)c1ccc(I)cc1 [compound 289, 4-iodo-N-{5-[(4-pyridinylmethyl)amino]-1,3,4-thiadiazol-2-yl}benzamide] | 36% | 
18 | O=C(Nc1nnc(NCCC(c2ccccc2)c2ccccc2)s1)c1cccc([N+](=O)[O-])c1 [compound 226, N-{5-[(3,3-diphenylpropyl)amino]-1,3,4-thiadiazol-2-yl}-3-nitrobenzamide] | 42.9% | 
19 | O=C(/C=C/c1ccccc1Cl)Nc1nnc(NCc2ccco2)s1 [compound 251, (E)-3-(2-chlorophenyl)-N-{5-[(2-furylmethyl)amino]-1,3,4-thiadiazol-2-yl}-2-propenamide] | 40.3% | 

Second part, led by results:

Row | inhibition at 25 µM | SMILES | % Inhib
20 | 33.2% | O=C(/C=C/c1ccccc1Cl)Nc1nnc(NCCSc2ccccc2)s1 [compound 322, (E)-3-(2-chlorophenyl)-N-(5-{[2-(phenylsulfanyl)ethyl]amino}-1,3,4-thiadiazol-2-yl)-2-propenamide] | 
21 | 29.1% | Cc1ccc(C(=O)Nc2nnc(NCCc3ccccc3)s2)cc1 [compound 359, 4-methyl-N-[5-(phenethylamino)-1,3,4-thiadiazol-2-yl]benzamide] | 
22 | 42.3% | CCOc1ccc2ccccc2c1C(=O)Nc1nnc(NCCCCc2ccccc2)s1 [compound 231, 2-ethoxy-N-{5-[(4-phenylbutyl)amino]-1,3,4-thiadiazol-2-yl}-1-naphthamide] | 
23 | 27.3% | O=C(CCCCCl)Nc1nnc(NCCCCc2ccccc2)s1 [compound 382, 5-chloro-N-{5-[(4-phenylbutyl)amino]-1,3,4-thiadiazol-2-yl}pentanamide] | 
24 | 26.2% | CCCCCCCC/C=C/CCCCCCCC(=O)Nc1nnc(NCCc2c[nH]cn2)s1 [compound 391, (E)-N-(5-{[2-(1H-imidazol-4-yl)ethyl]amino}-1,3,4-thiadiazol-2-yl)-9-octadecenamide] | 
25 | 47.4% | O=C(CCCCCl)Nc1nnc(NCC(c2ccccc2)c2ccccc2)s1 [compound 186, 5-chloro-N-{5-[(2,2-diphenylethyl)amino]-1,3,4-thiadiazol-2-yl}pentanamide] | 
26 | 84.6% | CCCCCCCC/C=C/CCCCCCCC(=O)Nc1nnc(NCc2cccs2)s1 [compound 42, (E)-N-{5-[(2-thienylmethyl)amino]-1,3,4-thiadiazol-2-yl}-9-octadecenamide] | 
27 | 32.4% | CCOc1ccc2ccccc2c1C(=O)Nc1nnc(NCCc2ccc(S(N)(=O)=O)cc2)s1 [compound 328, N-(5-{[4-(aminosulfonyl)phenethyl]amino}-1,3,4-thiadiazol-2-yl)-2-ethoxy-1-naphthamide] | 
28 | 41.3% | CCOc1ccc2ccccc2c1C(=O)Nc1nnc(NCCCn2ccnc2)s1 [compound 242, 2-ethoxy-N-(5-{[3-(1H-imidazol-1-yl)propyl]amino}-1,3,4-thiadiazol-2-yl)-1-naphthamide] | 
29 | 99.6% | O=C(Nc1nnc(NCCCCc2ccccc2)s1)c1ccc2c(c1)C(=O)OC2=O [compound 11, 1,3-dioxo-N-{5-[(4-phenylbutyl)amino]-1,3,4-thiadiazol-2-yl}-1,3-dihydro-2-benzofuran-5-carboxamide] | 
30 | 34.7% | COc1ccccc1C(=O)Nc1nnc(NCCc2c[nH]c3ccccc23)s1 [compound 303, N-(5-{[2-(1H-indol-3-yl)ethyl]amino}-1,3,4-thiadiazol-2-yl)-2-methoxybenzamide] | 
31 | 54.5% | CCCCCCCC/C=C/CCCCCCCC(=O)Nc1nnc(NCCc2c[nH]c3ccccc23)s1 [compound 149, (E)-N-(5-{[2-(1H-indol-3-yl)ethyl]amino}-1,3,4-thiadiazol-2-yl)-9-octadecenamide] | 
32 | 53.7% | O=C(/C=C/c1ccccc1)Nc1nnc(NCCc2c[nH]c3ccccc23)s1 [compound 153, (E)-N-(5-{[2-(1H-indol-3-yl)ethyl]amino}-1,3,4-thiadiazol-2-yl)-3-phenyl-2-propenamide] | 
33 | 44.2% | CCOc1ccc2ccccc2c1C(=O)Nc1nnc(NCc2ccco2)s1 [compound 213, 2-ethoxy-N-{5-[(2-furylmethyl)amino]-1,3,4-thiadiazol-2-yl}-1-naphthamide] | 
34 | 63.5% | CCCCCCCC/C=C/CCCCCCCC(=O)Nc1nnc(NCCCCc2ccccc2)s1 [compound 108, (E)-N-{5-[(4-phenylbutyl)amino]-1,3,4-thiadiazol-2-yl}-9-octadecenamide] | 

From patent publication US6150385A, “1,3,4-thiadiazoles useful for the treatment of CMV infections” (Pharmacia & Upjohn Company, priority 1999, dated 2000)
